Experimental data: patent publication US20220323454A1, “PHENOTHIAZINES AND THEIR DERIVATIVES FOR USE AS A MEDICAMENT” (Guangzhou Virotech Pharmaceutical Co., Ltd., priority 2019, published 2022)

Experiments:
[1] = system: Jurkat-PD-1-NFAT-LUC cells; test: NFAT-luciferase activity in Jurkat-PD-1-NFAT-LUC cells co-cultured with Raji-PD-L1 cells; format: cell-based, human; settings: 4.86 μM MTC or LMT added with Raji-PD-L1 cells, 6 h co-culture; FIG. 1E
Experimental: (1) Jurkat cells were used to construct a stable cell line expressing PD-1. The pCAGin-PD-1 plasmid was electroporated into Jurkat cells, which were then screened with 900 μg/mL G418 antibiotic and flow-sorted for single clones. Jurkat-PD-1 cells were then electroporated into a DNA fragment that controls the luciferase gene through the NFAT-binding site (referred to as NFAT-LUC). A single clone was then flow-sorted and named clone 5. Using this cell, the expression level of IL-2 can be measured by the activity of luciferase. Raji cells stably expressing PD-L1 were constructed, and the pCDNA-PD-L1 plasmid was electroporated into the Raji cells, followed by screening with 2 μg/mL puromycin, and then flow-sorted single clones and named clone 1.
(4) A 96-well plate was coated with 10 μg/mL CD3 antibody/10 μg/mL CD28 antibody overnight at 4° C., and excess antibody then washed off with PBS. Raji cells or Raji-PD-L1 cells were co-cultured with Jurkat-PD-1-NFAT-LUC cells at a ratio of 1:1, or to a mixture of Raji-PD-L1 cells and Jurkat-PD-1-NFAT-LUC cells at a ratio of 1:1 was added 4.86 μM MTC or LMT. Luciferase substrate was added after 6h co-culture and the luciferase activity was measured by a microplate reader.

OT-1 CTL cells [2] = test: CTL cell division under PD-L1 protein inhibition (CFSE, flow cytometry); format: cell-based; settings: 100 nM MTC; 10 nM SIINFEKL, 10 nM IL-2, 10 μg/mL mouse PD-L1 protein; 24, 48, 72 hours; FIG. 2B
Experimental: (§1) (1) Preparation of CTL cells: The spleens of OT1 mice were obtained, ground and added with red blood cell lysate, to prepare single-cell suspension. The culture medium was 1640+10% FBS+50 μM βME+10 nM IL-2. Cell density was adjusted to about 2-4 million/mL. The cells were added with 10 nM OVA257-264, and cultured in a cell incubator at 37° C., 5% CO2. From the day of CTL preparation, cells were stained with FITC-labeled PD-1 antibody every day, and the changes of PD-1 expression on the cell surfaces were detected by flow cytometry.
(2) The CTL cells were labeled with 5 nM CFSE, stimulated by 10 nM SIINFEKL and 10 nM IL-2, and added with 10 μg/mL mouse PD-L1 protein. The experimental group was also added with 100 nM MTC and stimulated for 24, 48, and 72 hours. The effects of PD-L1 protein and MTC on CTL cell division were observed by flow cytometry.

OT-1 CTL cells [3] = test: Secretion of CTL effector molecules on co-culture with EG7-PD-L1 target cells (flow cytometry); format: cell-based, mouse; settings: CTL : EG7-PD-L1 1:1, GolgiPlug 6 hours; FIG. 3
Experimental: as §1
(3) CTL cells and target cells EG7 (EL4 lymphoma cells expressing chicken ovalbumin) were mixed and cultured at a concentration of 1:1. The cell mixture was treated with 1 μM protein transport inhibitor GolgiPlug™ for 6 hours, and then fixed by 4% paraformaldehyde. The cells were then treated with 0.1% saponin, and stained with antibodies against each effector molecule. The effect of MTC on the secretion of CTL effector molecules was detected by flow cytometry.

EG-7-PD-L1 cells = test: CTL killing of EG-7-PD-L1 target cells (PI staining, flow cytometry); format: cell-based, mouse; settings: CTL : EG-7-PD-L1 5:1; 1 μM, 5 μM, 10 μM MTC, 4 hours; FIG. 4A
Experimental: (1) The preparation of CTL cells was described in Example 2.
(2) EG-7-PD-L1 cells were labeled with 5 nM CFSE. CTL cells and EG-7-PD-L1 were mixed at a ratio of 5:1, treated with 1 μM, 5 μM, and 10 μM MTC, respectively, for 4 hours, and then stained with 10 μg/mL PI. The apoptosis of target cells EG-7-PD-L1 was detected by flow cytometry, and then the killing ability of CTL cells to target cells was assessed.

B16-OVA cells = test: CTL killing of IFN-γ-treated B16-OVA melanoma cells (microscope); format: cell-based, mouse
Experimental: (3) Melanoma cells B16-OVA (B16 cells expressing OVA gene) were treated with 10 μg/mL IFN-γ for 24 hours, and then mixed with CTL cells at a ratio of 1:5 and co-cultured for 4 hours. Cells were treated with 1 μM MTC. B16-OVA cells treated with DMSO or MTC only (without IFN-γ treatment) were used as control. The apoptosis of B16-OVA was observed by microscope, and then the killing ability of CTL cells to target cells was assessed.
(4) The B16-OVA group received no treatment, and the medium was replaced with water in the Water group. The other groups were treated with 10 μg/mL IFNγ. After 24 hours, except for the B16-OVA group, each group was co-cultured with CTL cells at a ratio of 1:5 for 4 hours, and treated with MTC […], LMT (1 μM) or anti-PD1 (PD-1 antibody, 10 μg/mL, Nivolumab, BMS). The death of B16-OVA in each group was observed by microscope, and then the killing ability of CTL cells to target cells was assessed. […] The IFN-γ+MTC group and the IFN-γ+LMT group were treated with 10 μg/mL IFN-γ for 24 hours. The cells were then mixed with CTL cells at a ratio of 1:5, co-cultured for 4 hours and treated with MTC (1 μM) or LMT (1 μM). The MTC and LMT groups were treated with MTC (10 μM) or LMT (10 μM) only. The killing ability against target cells was observed.

PD-1 recruitment of SHP2 [4] = molecular target: T1, PD-1 recruitment of SHP2 (Homo sapiens, UniProt Q06124+Q15116); test: Confocal localization of PD-1-GFP and SHP2-mCherry in 293T cells; format: cell-based; settings: 293T stable cell line, MTC 6 hours, then 1 μM PVD 5 minutes
T1 construct: expressed in transfected cells
Experimental: (2) Fusion genes PD-1-GFP and SHP2-mCherry were transfected into 293T cells with liposomes to construct a stable cell line. The cells were added with MTC at different concentrations, cultured for 6 hours, and then treated with 1 μM PVD (a dephosphorylase inhibitor) for 5 minutes. Cells were fixed with 4% paraformaldehyde and the effect of MTC on the localization of GFP and mCherry, namely PD-1 and SHP2, was observed under Confocal.

PD-1 recruitment of SHP2 [5] = molecular target: T1, PD-1 recruitment of SHP2; test: Co-IP of PD-1-Flag and SHP2 in 293T cells; format: cell-based; settings: 293T co-transfected with PD-1-Flag and SHP2 plasmids, MTC at different concentrations; FIG. 7C
Experimental: (3) The PD-1-Flag plasmid and SHP2 plasmid were co-transfected in 293T cells, and the cells were then treated with MTC at different concentrations. The ability of PD-1 to recruit SHP2 was detected by Co-IP.

T1 sequence (Q15116 25-288): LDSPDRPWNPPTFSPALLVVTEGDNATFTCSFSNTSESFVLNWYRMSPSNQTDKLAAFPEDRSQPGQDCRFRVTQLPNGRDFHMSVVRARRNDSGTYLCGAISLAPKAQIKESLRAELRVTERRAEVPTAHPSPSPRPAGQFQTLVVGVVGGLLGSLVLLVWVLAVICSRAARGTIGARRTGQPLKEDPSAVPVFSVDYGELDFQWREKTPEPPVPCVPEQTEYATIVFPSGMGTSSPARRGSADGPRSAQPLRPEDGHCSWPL
T1 sequence (Q06124 whole entry): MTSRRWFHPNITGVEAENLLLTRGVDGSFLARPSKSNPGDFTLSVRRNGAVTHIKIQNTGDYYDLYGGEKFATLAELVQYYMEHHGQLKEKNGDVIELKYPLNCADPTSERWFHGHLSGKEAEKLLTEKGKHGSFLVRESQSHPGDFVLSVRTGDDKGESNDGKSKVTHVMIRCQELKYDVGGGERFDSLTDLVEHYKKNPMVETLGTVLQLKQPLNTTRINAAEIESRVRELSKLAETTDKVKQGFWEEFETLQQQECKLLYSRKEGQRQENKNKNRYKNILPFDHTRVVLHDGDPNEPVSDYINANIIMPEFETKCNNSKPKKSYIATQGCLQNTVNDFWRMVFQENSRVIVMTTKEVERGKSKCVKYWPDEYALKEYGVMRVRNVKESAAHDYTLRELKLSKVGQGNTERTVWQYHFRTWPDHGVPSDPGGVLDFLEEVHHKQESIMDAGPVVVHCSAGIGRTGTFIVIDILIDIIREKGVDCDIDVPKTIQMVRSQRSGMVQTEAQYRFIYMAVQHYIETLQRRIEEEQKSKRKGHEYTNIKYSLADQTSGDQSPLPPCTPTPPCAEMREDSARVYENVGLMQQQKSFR

CN(C)c1ccc2nc3ccc(N(C)C)cc3[s+]c2c1 [MTC, 3,7-bis(dimethylamino)-phenothiazine-5-ium chloride]
luciferase activity [1]: increased dramatically
CTL cell division inhibited by PD-L1 protein (OT-1 CTL cells [2]): reversed the inhibition
secretion of Granzyme B in CTL cells (OT-1 CTL cells [3]): increased sharply
secretion of IFNγ in CTL cells (OT-1 CTL cells [3]): increased sharply
secretion of IL-2 in CTL cells (OT-1 CTL cells [3]): increased sharply
secretion of perforin in CTL cells (OT-1 CTL cells [3]): increased sharply
killing ability of CTL cells against EG-7-PD-L1 (EG-7-PD-L1 cells): significantly restored
killing effects of CTL cells to B16-OVA cells (B16-OVA cells; B16-OVA treated with 10 μg/mL IFNγ 24 hours, B16-OVA : CTL 1:5, 4 hours, MTC (1 µM), LMT (1 μM), FIGS. 4C and 4D): significantly enhanced
combined killing effect with CTL cells on B16-OVA compared with the anti-PD-1 group (B16-OVA cells; MTC (1 µM) or LMT (1 μM) vs anti-PD1 10 μg/mL, FIG. 4D): significantly stronger than that of the anti-PD-1 group
localization of SHP2-mCherry relative to PD-1-GFP (PD-1 recruitment of SHP2 [4]): dissociation of mCherry from the membrane
binding of PD-1 to SHP2 (Co-IP) (PD-1 recruitment of SHP2 [5]): prevented the binding of PD-1 to SHP2
